Results as given in EP0015544A2, “Derivatives of the mercaptopropionamido-acetic acid, process for the preparation thereof and compositions” (ZAMBON S.p.A., priority 1979, dated 1980).

Tests used:
[1] = in vivo; details: ip, i.p. administration in the mouse, buffered with sodium bicarbonate at pH 6, read-out: DL50 (the source's name)
[2] = system: intrabronchial desquamation and the reactive mucousa iperplasye; test: CCl nebulization in rats, bronchial desquamation and mucosal hyperplasia; format: in vivo; details: oral 0.5 g/kg/die (esters: equivalent to 0.5 g/kg/die of the acid); nebulization 10 days, 5 nebulizations for 2 minutes a day
[3] = system: bronchial ipersecretion induced with S02; test: bronchial hypersecretion induced with SO2 in rats; format: in vivo; details: oral, two weeks, 0.5 g/kg/die (esters: equivalent to 0.5 g/kg/die of free acid); 300 ppm SO2 two hours a day, total 90 hours; untreated animals 80%
Text: Under the same experimental conditions in tests carried out with Carbocysteine at the same dose (0.5 g/kg/die) the percentage of the non protected animals was 25%.

[4] = system: mucins of the fibrillar reticulum; test: glycopeptide analysis of bronchial mucus from orally treated patients; format: in vivo; details: comparative test, 70 mg/kg/die
Procedure: The analysis of the glycopeptides of the bronchial mucus obtained by hydrolysis with papaine (24 hours at 37°C, pH 6.5) followed by pronasis (24 hours at 37°C at pH 7.3) and fractionation by electrophoresis on agarose at pH 8.6 and finally chromatografy on DEAE -Sephadex A/25 column has shown an average increasing of about 100% of the sialoglycopeptides (hydrophil- ics) with a reduction higher than 60% of the weakly acid glycopeptides and neutral mucins (hydrophobics) followed by lowering of the viscosity.

Structure (SMILES) | LD50 [1] [mg/kg] | hindering of the intrabronchial desquamation and the reactive mucousa iperplasye [2] [%] | bronchial obstruction, percentage of treated (non protected) animals [3] [%] | average increasing of the sialoglycopeptides [4] [%] | decreasing of the glycopeptides and mucins [4] [%]
N[C@@H](CSCC(=O)O)C(=O)O [Carbocysteine] | 5180 | ≤ 40 | 25 | ≤ 75 | ≤ 45
CC(SCC(=O)O)C(=O)NCC(=O)O (stereo not shown) [S-carboxymethyl-propionyl-glycine] | 5420 |  |  |  | 
O=C(O)CNC(=O)CCSCC(=O)O [beta-(S-carboxvmethvl)-propionvl-qlvcine] | 5500 |  |  |  | 
